Data reported in US20240237646A1, “METHODS OF DECREASING PLANT INJURY AND IMPROVING CROP YIELD” (priority 2023, published 2024).

Assays:
[1] = tested on: creeping bentgrass (Agrostis palustris) turf; conditions: 6 applications every two weeks, 8 visual ratings combined, trinexapac-ethyl 514, paclobutrazol 280, prohexadione-calcium 154, flurprimidol 15 g ai/ha, B Sure 19,091 ml/ha in mixtures
From the text: Each plant growth regulator (PGR) combination was applied in 2 gallons of water per 1,000 square feet and applications were made 6 times with application intervals every two weeks. Visual injury was rated 8 times between June 8th and August 11th on a percent scale from 0 to 100 where 0 equals no visual response and 100 equals complete plant death.

[2] = tested on: genetically modified (GMO) soybeans engineered to resist 2,4-D; test: Study, B Sure + herbicides in GMO soybeans (canopy rating); type: in vivo, soybean; conditions: lactofen 218, 2,4-D choline 1064, chlorimuron 13 g ai/ha; for Canopy rating relative to % ground cover: GMO soybeans V3-R1, B Sure 1 pt/A in mixtures, larger = greater crop vigor; for % Increase in soybean canopy measure with B Sure ® added: herbicide + B Sure 1 pt/A compared to the herbicide applied alone
From the text: Treatments included 1) B Sure® 1 pt/A; 2) Lactofen 218 g ai/ha; 3) Lactofen 218 g ai/ha+B Sure® 1 pt/A; 4) 2,4-D choline 1064 g ai/ha; 5) 2,4-D choline 1064 g ai/ha+B Sure® 1 pt/A; 6) chlorimuron 13 g ai/ha; 7) chlorimuron 13 g ai/ha+B Sure® 1 pt/A. Adjuvants applied varied by treatment and were consistent with product label recommendations. A preemergence herbicide was applied to all treatments in order to reduce competition from weed species that would increase variability in the study. A canopy rating was made which evaluated the % ground cover differences of the soybeans associated with the various treatments. In these measurements, the larger ground cover number represents a greater amount of soybean leaf tissue which represents greater crop vigor and overall soybean health.

[3] = tested on: genetically modified (GM) soybeans (Enlist E3® soybeans); test: Four field studies, B Sure + lactofen or 2,4-D in GM soybeans (yield); type: in vivo, Glycine max; conditions: for Yield (bushels/acre): lactofen 210 g ai/ha, 2,4-D choline salt 2,527 g ai/ha, check 62.2
Method: Four field studies were conducted in 2023 in the states of Ohio, Nebraska, Indiana, and Illinois to determine the influence of the “HYT plant ameliorant” B Sure® at 1,170 mls/ha on soybean (Glycine max) yield when applied in combinations with the herbicides lactofen at 210 g ai/ha and 2,4-D (as its choline salt) at 2,527 g ai/ha on genetically modified (GM) soybeans (Enlist E3® soybeans) created to tolerate applications of 2,4-D, glufosinate, and glyphosate. Treatments were applied using a water carrier with crop oil concentrate added to all treatments at 1% v/v and ammonium sulfate at 2.24 kg/ha added to herbicide containing treatments. Yields were adjusted to constant moisture and recorded in bushels/acre. […] All plots were maintained weed free.

[4] = tested on: soybeans (Glycine max); conditions: fomesafen 350 g ai/ha alone
From the text: The study was arranged in a randomized complete block design with 6 replicates in conventionally tilled soybeans (Glycine max).
Herbicides were applied in a water carrier of 20 gallons per acre and treatments were applied at first flower (V5/R1). All fomesafen treatments contained an adjuvant system of 1% v/v crop oil concentrate and 2.5% v/v urea ammonium nitrate as is consistent with product label instructions.

[5] = tested on: creeping bentgrass (Agrostis stolonifera); test: Field study, B Sure + PCNB on creeping bentgrass (visual injury); conditions: PCNB 227 g ai/1,000 sq ft, B Sure 6 fl oz/1,000 sq ft in the mixture
From the text: PCNB was applied at 227 g ai/per 1,000 square feet. […] Treatments were applied on July 14th using an application volume of 2 gallons per 1,000 square feet. Creeping bentgrass injury ratings were made five times corresponding to 3, 7, 10, 14 and 28 days after application (DAA).

[6] = tested on: cotton (Gossypium hirsutum); test: Six field studies, B Sure + trifloxysulfuron in cotton (visual injury); type: in vivo; conditions: trifloxysulfuron 8 g ai/ha alone, rated 2 to 3 weeks after application
From the text: The studies were arranged in a randomized complete block design with 4 replicates in conventionally tilled cotton. Evaluations were combined over locations and plots were maintained weed free over the duration of the trial.
Herbicides were applied in a water carrier to cotton at three separate stages of growth: 1) cotyledon-2 leaf; 2) 3-4 leaf; and 3) 5 leaf or greater. All trifloxysulfuron treatments contained a nonionic surfactant at 0.25% v/v as is consistent with product label instructions. Treatments included in the trial were the following: 1) trifloxysulfuron 8 g ai/ha-cotyledon-2 leaf cotton; 2) trifloxysulfuron 8 g ai/ha+B Sure® 1,170 mls/ha-cotyledon-2 leaf cotton; 3) trifloxysulfuron 8 g ai/ha+B Sure® 2 pint/acre-cotyledon-2 leaf cotton; 4) trifloxysulfuron 8 g ai/ha-3-4 leaf cotton, 5) trifloxysulfuron 8 g ai/ha+B Sure® 1,170 mls/ha-3-4 leaf cotton; 6) trifloxysulfuron 8 g ai/ha+B Sure® 2,340 mls/ha-3-4 leaf cotton; 7) trifloxysulfuron 8 g ai/ha-5 leaf or greater cotton, 8) trifloxysulfuron 8 g ai/ha+B Sure® 1,170 mls/ha-5 leaf or greater cotton; 9) trifloxysulfuron 8 g ai/ha+B Sure® 2, 340 mls/ha-5 leaf or greater cotton; 10) Check.

CC(C)(C)[C@@H](O)[C@@H](Cc1ccc(Cl)cc1)n1cncn1 (racemic) [Paclobutrazol]
% Phytotoxicity [1]: 10%

C[N+](C)(C)CCO.O=C([O-])COc1ccc(Cl)cc1Cl [2,4-D Choline, 2,4-D choline salt]
Canopy rating relative to % ground cover [2]: 6.18 | % Increase in soybean canopy measure with B Sure ® added [2]: 12.9% | soybean yield increase over the check ([3]; B Sure 1,170 mls/ha, lactofen 210 g ai/ha, 2,4-D 2,527 g ai/ha): 3.1 bushels/acre | Yield (bushels/acre) ([3]; B Sure 1,170 mls/ha): 65.3 bushels/acre

COc1cc(Cl)nc(NC(=O)NS(=O)(=O)c2ccccc2C(=O)O)n1 [Chlorimuron, chlorimuron]
Canopy rating relative to % ground cover [2]: 6.25 | % Increase in soybean canopy measure with B Sure ® added [2]: 10.9%

CS(=O)(=O)NC(=O)c1cc(Oc2ccc(C(F)(F)F)cc2Cl)ccc1[N+](=O)[O-] [Fomesafen, fomesafen]
Soybean Yield (% increase over untreated check) [4]: 4.6% | % Injury ([4]; soybean, applied at V5/R1, visual scale 0-100): 7%

CCOC(=O)C(C)OC(=O)c1cc(Oc2ccc(C(F)(F)F)cc2Cl)ccc1[N+](=O)[O-] (centres unmarked) [Lactofen, lactofen]
Canopy rating relative to % ground cover [2]: 2.99 | % Increase in soybean canopy measure with B Sure ® added [2]: 7.4% | Yield (bushels/acre) ([3]; B Sure 1,170 mls/ha): 61.5 bushels/acre | soybean yield reduction over the untreated check ([3]; lactofen 210 g ai/ha): 0.7 bushels/acre

O=[N+]([O-])c1c(Cl)c(Cl)c(Cl)c(Cl)c1Cl [PCNB, pentachloronitrobenzene]
% Injury 3 DAA ([5]; 3 days after application): 20% | % Injury 7 DAA ([5]; 7 days after application): 100% | % Injury 10 DAA ([5]; 10 days after application): 100% | % Injury 14 DAA ([5]; 14 days after application): 100% | % Injury 28 DAA ([5]; 28 days after application (end of trial)): ~100%

COc1cc(OC)nc(NC(=O)NS(=O)(=O)c2ncccc2OCC(F)(F)F)n1 [Trifloxysulfuron, trifloxysulfuron]
% Injury ([6]; 3-4 leaf): 15% | % Injury ([6]; 5+ leaf): 5% | % Injury ([6]; Cotyledon-2 leaf): 18%

CCOC(=O)C1CC(=O)C(=C(O)C2CC2)C(=O)C1 (centres unmarked) [Trinexapac-ethyl]
% Phytotoxicity [1]: 10%

Prohexadione-calcium
% Phytotoxicity [1]: 12%
